Assays:
[1] = target: T1, Actin from rabbit muscle (Sigma A2522) (Oryctolagus cuniculus, UniProt P68135); test: Surface plasmon resonance (BIAcore 3000) of actin binding; conditions: actin on CM5 chip, amine coupling, 5 concentrations, 10 μl/min, 25°C
T1 construct: purchased Sigma A2522; host or cells: rabbit muscle (tissue-purified)
Method: SPR was performed on a BIAcore 3000 instrument (BIAcore, Uppsala, Sweden). Actin was diluted in 100 mM CH3COONa pH 4.6 to a final concentration of 20μg/ml (200μl total) resulting in ~1ng immobilized actin on a CM5 BIAcore sensor chip (GE Healthcare Bio-Sciences AB) using the standard BIAcore amine coupling chemistry protocol. The CM5 chip allows four separate flow cells to be operated in the BIAcore 3000 instrument used in these experiments. Coupling is achieved by activating the surface of the sensor chips with equal volumes of 50 mM N-hydroxysuccimide (NHS)/200 mM Nethyl-N-(3-[…])-carboiimide (EDC) (BIAcore, AB, Uppsala, Sweden) to form activated carboxyl groups. In the BIAcore protocol the binding is believed to be between carboxyl groups on the surface and amine groups on the protein. The actin solution (15 μg/ml) was then run over the chip for 5 min at a rate of 10 μl/min, where the amine groups on protein react with the activated esters. In the final stage of immobilization, the surface was blocked by 1M ethanol amine, pH 8.0. The binding assay was performed by injecting the hRNASET2, trT2-50, trT2-50m or peptides solutions in running buffer (HBS-10mM Hepes, 150mM Sodium Chloride, 3mM EDTA, 0.005% Polysorbate 20) at 5 different concentrations at a flow rate of 10 μl/min at 25°C. Injections were performed simultaneously over all four channels and blank surface a plain dextran matrix (channel 1) was used as control. The net signal was obtained by subtracting the blank signal from the signal of the immobilized surface. The association phase for protein or peptides binding to actin was followed for 4 min, and dissociation phases were monitored for 3 min. Surface regeneration between consecutive binding cycles included a 1 min injection of 1 mM NaOH. The response was monitored as a function of time (sensorgram) at 25°C. Multi-concentration data were globally fit using BIA evaluation 3.2 software.
The strength of a two molecule interaction is characterized by the equilibrium dissociation (binding) constant KD =[P][L]/[PL], where [P] is the concentration of free protein (or peptide), [L] the concentration of ligand and [PL] the concentration of the complex. At equilibrium, KD is related to the rate of complex formation (described by the association rate constant, ka) and the rate of breakdown (described by the dissociation rate constant, kd ), such that KD =[…]. A high affinity interaction is characterized by a low KD, rapid recognition and binding by high ka, and stability of complex formation by low kd.

HUVECs = test: Immunofluorescence: localization and co-localization of peptide and angiogenin in HUVECs; assay type: cell-based, human; conditions: anti-angiogenin (red)
Method: Cells were cultured on PBS-covered slides in 12-well plates with 0.1% pork gelatin (Sigma-Aldrich) and were incubated with peptide K108-K133 or angiogenin. Cells were fixed with 3% Paraformaldehyde (PFA) (Merck Millipore, Dermstadt, Germany) containing 0.5% triton, washed three times with PBS and blocked with 5% donkey serum (Jackson ImmunoResearch). Rabbit anti-angiogenin (Merck Millipore) was added (1:100 dilution; prepared in 5% donkey serum) and incubated overnight at 4°C. After washing three times with TBST, the slides were incubated for 1 h with Alexa 488-conjugated anti-rabbit antibody (Invitrogen Life Technologies) and phalloidin tetramethylrhodamine B isothiocyanate–conjugated […] (Sigma-Aldrich), and then washed, and mounted with a mixture containing 30% mounting medium, 4′,6-diamidino-2-phenylindole (DAPI) (Santa Cruz Biotechnology Inc., Santa Cruz, CA) and 70% fluoromount (Sigma-Aldrich). The slides were viewed under a Leicactr4000 laser scanning confocal microscope.

CAM = test: Ex ovo CAM angiogenesis assay; assay type: in vivo, chicken; conditions: 3 μg on filter paper disk every day for 4 days from day 8, vs PBS; N=3 for hRNASET2 and trT2-50, N=5 for peptides and PBS
Method: In this assay we used fertilized eggs cracked into a petri dish after […] of incubation in 37°C and 60% humidity. In the following days, the embryos developed a vascular network. Treatment began on the eighth day of incubation and was delivered drop-wise onto disks of Whatman paper that had been placed on the developing vascular regions. The treatment was performed every day for 4 days. The number of blood vessels around the treated disk was counted every day.
Fertilized chicken eggs were incubated horizontally at 37°C and humidity of 60 - 62% and cracked into Petri dishes at embryonic day 4. Incubation was continued under the same conditions. On day 8, sterile filter paper disks (5.5 mm in diameter) were layered on top of the CAM and soaked either with 5 μl PBS or 3 μg hRNASET2, trT2-50, peptide A103-Q159 or peptide K108-K133. Treatment was given every day for four days, then, the number of blood vessels around the treated disks was counted. (For hRNASET2 and trT2-50, N=3; for peptide A103-Q159, peptide K108-K133 and PBS, N=5).

[2] = tested on: HUVEC (VEGF-induced tube formation); test: HUVEC tube formation assay on Matrigel, VEGF-induced; assay type: cell-based, human; conditions: 2 μM, VEGF 1 μg/ml, 8 h, vs PBS control, N=5
Method: (§1) Figure 4 trT2-50m and peptides A103-Q159 (57aa) and K108-K133 (26aa) inhibit angiogenin- and VEGF-induced HUVEC tube formation on Matrigel Freshly isolated HUVECs were plated in a 96-well plate previously coated with Matrigel. (A): Cells were treated with either peptide A103-Q159, K108-K133 or K108-L123 (2μM) or PBS (control), in addition to angiogenin or VEGF (1 μg/ml). (B): tube formation was assessed using Image J, the results are represented as percent of control. […] (C): Cells were treated with trT2-50m (2μM) or PBS (control), in addition to angiogenin or VEGF (1 μg/ml).
(§2) Freshly isolated HUVEC were maintained in endothelial cell growth medium (EGM) supplemented with SingleQuots (EGM BulletKit CC-3124, Lonza). They were then plated in a 96-well plates (14 × 10^3 cells/well) previously coated with growth factor-depleted Matrigel (Becton-Dickinson, Bedford, MA) in M199 medium supplemented with 20% FBS, 1% glutamine, 1% antibiotic–antimycotic solution (Biological Industries) and 50 U/100 ml heparin (Biomedical Technologies Inc., Stoughton, MA). Cells were treated with trT2-50m (2 μM), peptides or PBS, in addition to angiogenin (R&D Systems, Inc. Minneapolis, MN), or VEGF (Protein Laboratories, Rehovot, Israel) (1 μg/ml each). After 8 h of incubation at 37°C, the plates were photographed and the extent of tube formation was counted using Image J (NIH, Bethesda, MD) software. […]

[3] = tested on: HUVEC (angiogenin-induced tube formation); test: HUVEC tube formation assay on Matrigel, angiogenin-induced; assay type: cell-based, human; conditions: 2 μM, angiogenin 1 μg/ml, 8 h, vs PBS control, N=5
Method: as §1, §2

actin = actin (Oryctolagus cuniculus, UniProt P68135); test: Actin binding solid phase assay (ELISA); conditions: from 500 ng/well, 1 h at 37°C, discussion also refers to BIAcore
Excerpt: For further insight on the actin binding site within the hRNASET2 protein sequence we tested 29 suspected peptides for their ability to bind actin. The actin-binding capability of the 29 synthetic peptides was compared to the binding capability of trT2-50 using a solid phase actin binding assay. […] We next tested the interaction kinetics to evaluate the interaction nature as described for trT2-50 and trT2-50m. […] In addition, there is a linear relation between the protein concentration and the maximal (steady-state) response for peptides A103-Q159 and K108-K133, indicating the pseudo-first-order regime in relation to the immobilized actin.
96-well plates (MaxiSorp® flat-bottom 96-well plate, Fisher Scientific Inc., Fair Lawn, NJ) were coated with 500 ng actin in 100 μl carbonate-bicarbonate buffer (pH 9.5) for 1 h at 37°C. The plate was washed once with TBS and then blocked with 3% BSA in 200 μl TBS buffer at 37°C, for 1 h. Wells were then washed once with 250 μl TBS. trT2-50, trT2-50m or each of the 29 peptides were added at 1:2 dilutions in 100 μl TBS, starting from 500 ng/well, incubated for 1 h at 37°C and then washed three times with TBS containing 0.1% Tween-20 (TBST). […] Absorbance at 655 nm was measured 10 min thereafter using a Power Wave 200 Microplate Scanning Spectrophotometer (Bio-Tek Instrument, Winooski, VT). Affinity was evaluated by double reciprocal plot.

CC[C@H](C)[C@H](NC(=O)CNC(=O)[C@H](CC(C)C)NC(=O)[C@H](CCCCN)NC(=O)[C@H](CC(C)C)NC(=O)[C@H](CC(C)C)NC(=O)[C@@H](NC(=O)[C@H](CO)NC(=O)[C@H](CC(N)=O)NC(=O)[C@H](CC(C)C)NC(=O)[C@H](CC(=O)O)NC(=O)[C@H](CC(C)C)NC(=O)[C@H](CCC(=O)O)NC(=O)[C@H](CCCNC(=N)N)NC(=O)[C@H](Cc1ccc(O)cc1)NC(=O)[C@H](CC(C)C)NC(=O)[C@H](CCC(=O)O)NC(=O)[C@H](CC(C)C)NC(=O)[C@H](CO)NC(=O)[C@H](CCCNC(=N)N)NC(=O)CNC(=O)[C@H](Cc1ccccc1)NC(=O)[C@H](Cc1ccc(O)cc1)NC(=O)[C@H](CCCCN)NC(=O)[C@@H](N)CCCCN)C(C)C)C(=O)N[C@@H](CCCCN)C(=O)O [Peptide K108-K133]
kon ([1]; HBS (10mM Hepes, 150mM NaCl, 3mM EDTA, 0.005% Polysorbate 20), association 4 min, dissociation 3 min, global fit BIAevaluation 3.2, read-out: association rate Ka): 14200 M⁻¹ s⁻¹
koff ([1]; HBS (10mM Hepes, 150mM NaCl, 3mM EDTA, 0.005% Polysorbate 20), dissociation 3 min, global fit BIAevaluation 3.2, read-out: dissociation rate Kd): 0.0458 s⁻¹

angiogenin: angiogenin (R&D Systems, Inc. Minneapolis, MN)
localization of angiogenin in presence of peptide K108-K133 (HUVECs; 2 and 8 h of incubation with the peptide and angiogenin): Same angiogenin localization was observed after 2 and 8 h
localization of angiogenin in presence of peptide K108-K133 (HUVECs; 10 min of incubation with the peptide and angiogenin): located in the nucleus, the cytoplasm surrounding the nucleus, on the actin fibers and outside the cell

hRNASET2: full-length human RNASET2, produced in CHO, T2BIOTECH Ltd
association rate Ka ([1]; HBS (10mM Hepes, 150mM NaCl, 3mM EDTA, 0.005% Polysorbate 20), association 4 min, dissociation 3 min, global fit BIAevaluation 3.2): 2.40 × 10^3 (1/Ms)
dissociation rate Kd ([1]; HBS (10mM Hepes, 150mM NaCl, 3mM EDTA, 0.005% Polysorbate 20), dissociation 3 min, global fit BIAevaluation 3.2): 0.00346 s⁻¹
Kd ([1]; HBS, determined from kinetic analyses, BIAevaluation 3.2, read-out: dissociation constant KD): 1440 nM
blood vessels around the treated disk (CAM): fewer blood vessels developed compared to the control

Peptide K108-L123: peptide K108-L123 (16 aa) that failed to bind actin
inhibition of VEGF-induced tube formation (in words) [2]: unable to inhibit tube formation
inhibition of angiogenin-induced tube formation (in words) [3]: unable to inhibit tube formation
ability to bind actin (in words) (actin): failed to bind actin
